Experimental data as given in US20060185411A1, “Calcium polysulfide, potassium polysulfide, calcium thiosulfate, and magnesium thiosulfate as urease inhibitors” (Tessenderlo Kerley, Inc., priority 2005, published 2006).
Like-named read-outs stand apart in the source and are kept apart here.

Experiments:
soil urease = details: surface application of urea; literature; cited from earlier work
[1] = pH of the solutions of urea and additive compound; format: physicochemical; details: urea-only solution
urease [2] = details: Example 6
urease [3] = assay: Ammonia volatilization from soil-applied urea solution with additive compound (continuous air purge, ammonia collected in sulfuric acid, indophenol blue method)
Description: (§1) The amount of additive compound set forth in Table 1 below was added to a solution of reagent grade urea having a urea concentration of 13850 micrograms of nitrogen per 2 ml, together with the desired amount of compound. This urea concentration was selected to be equivalent to an application rate of 100 lbs of nitrogen per acre. A standard sample containing only urea in the same concentration and an unfertilized blank (2 ml of distilled water) also were applied to soil.
The amounts of additive compound were calculated to provide the desired quantity of that compound appropriate for application of a 50 percent w/v solution of urea (i.e., 50 grams of urea per 100 ml of water) to supply 100 lbs of nitrogen per acre. Each additive compound was used at 5 and 10 percent of the volume of urea solution. The treatments were therefore equivalent to the application 198 liters (52.3 US gallons) of urea solution per acre together with 9.9 liters (2.6 US gallons) of additive compound at the low rate or 19.8 liters (5.2 US Gallons) at the high rate.
Soil was treated and ammonia measurements were taken in accordance with the following method. Plastic containers with a diameter of 4.2 cm were used for this study. Each container was filled with 60 g of a sandy soil and moistened with 12 mls water to 86% of its water holding capacity. All treatments were surface applied in 2 mls of solution, bringing the moisture level up to field capacity.
The air was humidified before introduction by bubbling it through distilled water, then passing it through a cotton plug to remove moisture droplets. Evolved ammonia was collected by passing the air through 50 mls of 0.5 M sulfuric acid. This was sufficient to collect 3 times the total amount of nitrogen added, ensuring that the solution never became saturated with ammonia. The amounts of ammonia collected in the sulfuric acid solutions were determined by the indophenol blue method.
Ammonia measurements were taken at 2 and 7 days after application. […] The amounts of ammonia collected are expressed as a percentage of the total that was applied.
as §1, with “Table 3” for “Table 1”
The amounts of additive compound were calculated to provide the desired quantity of that compound appropriate for application of a 50 percent w/v solution of urea (i.e., 50 grams of urea per 100 ml of water) to supply 100 lbs of nitrogen per acre. The urea and additive compounds were applied to soil in accordance with the method described in Example 1.
Calcium polysulfide solution was added at a rate of 1, 2, 4 and 8 percent of the volume of urea solution. K-Sul® was added at a rate of 5 and 10 percent of the volume of urea solution. Ammonia measurements were taken at 2 and 7 days after application. […] The amounts of ammonia collected are expressed as a percentage of the total that was applied.
In each treatment, the appropriate amount of product was added to a solution of reagent grade urea and made to 100 mls in volumetric flasks. Concentrations were adjusted to ensure that the 2 mls of each solution provided 13850 micrograms of nitrogen together with the required amount of product to provide the equivalent of an application rate of 100 lbs of nitrogen per acre. A standard sample contained only urea and an unfertilized blank was treated with 2 mls of distilled water.

nitrification = details: combination with UAN or banded urea solution; literature; cited from earlier work
[4] = Example 1, urea only, no additive
[5] = Example 3, urea only, no additive
[6] = Example 5, urea only, no additive

Compound: [Ca+2].[Cl-].[Cl-] [Calcium chloride]
- effect on ammonia volatilization (in words) (soil urease): delays the start of ammonia volatilization

Compound: NC(N)=O [Urea]
- Solution pH ([1]; Example 2): 8.4
- Solution pH ([1]; Example 4): 9.0
- % of N applied (urease [2]; 100 lbs N per ac): 2.07%
- Ammonia collected, mg Day 2 (urease [2]; 100 lbs N per ac): 0.14 mg
- Ammonia collected, mg Day 7 (urease [2]; 100 lbs N per ac): 2.32 mg
- Ammonia collected, mg Day 14 (urease [2]; 100 lbs N per ac): 0.78 mg
- Ammonia collected, mg Day 21 (urease [2]; 100 lbs N per ac): 0.00 mg
- Ammonia collected, mg Day 28 (urease [2]; 100 lbs N per ac): 0.00 mg
- Ammonia collected, mg Total (urease [2]; 100 lbs N per ac): 3.25 mg
- % of N applied (urease [2]; 200 lbs N per ac): 3.17%
- Ammonia collected, mg Day 2 (urease [2]; 200 lbs N per ac): 0.31 mg
- Ammonia collected, mg Day 7 (urease [2]; 200 lbs N per ac): 4.86 mg
- Ammonia collected, mg Day 14 (urease [2]; 200 lbs N per ac): 4.31 mg
- Ammonia collected, mg Day 21 (urease [2]; 200 lbs N per ac): 0.47 mg
- Ammonia collected, mg Day 28 (urease [2]; 200 lbs N per ac): 0.00 mg
- Ammonia collected, mg Total (urease [2]; 200 lbs N per ac): 9.94 mg
- % Loss 0-2 days (urease [3]; [4]): 22.0%
- % Loss 3-7 days (urease [3]; [4]): 3.9%
- % Loss Total (urease [3]; [4]): 25.9%
- % lost 0-2 days (urease [3]; [5]): 25.56%
- % lost 3-7 days (urease [3]; [5]): 11.45%
- % lost Total (urease [3]; [5]): 37.01%
- % lost 0-2 days (urease [3]; [6]): 25.50%
- % lost 3-7 days (urease [3]; [6]): 8.25%
- % lost Total (urease [3]; [6]): 33.75%

Compound: ammonium polyphosphate
- effect on nitrification (in words) (nitrification): only a weak effect

Compound: ammonium polysulfide
- effect on nitrification (in words) (nitrification): no effect on nitrification
- urease inhibition and ammonia volatilization inhibition, comparison between products (in words) (urease [3]; summary of Examples 1-4): less urease inhibition activity than calcium polysulfide
